Entries after “also recorded” stand apart in the source; their conditions may differ.
Experiments:
[1] = tested on: human platelets (arachidonic acid-induced aggregation); experiment: Arachidonic acid-induced human platelet aggregation (turbidometric); format: cell-based; details: for IC50: Homo sapiens, Platelet, inhibitor 1 min before AA (0.2-1 mM), mean ± S.E.M., n = 3-9 donors; for fold more potent inhibitor of AA-induced aggregation: implied versus clofibric acid; for antiaggregatory potency relative to clofibric acid (in words): prostaglandin-dependent pathway of platelet activation
Method: (§1) The antiaggregatory action of the compounds of the present invention was determined using the following procedure: ADP and AA were obtained from Sigma Chemical Co., (St. Louis, MO). [^14 C]-Serotonin (57 mCi/mmol) and [^3 H]-AA (210 Ci/mmol) were supplied by Amersham (Arlington Heights, IL). U46619 (15S-hydroxy-11α,9α-epoxymethano-prosta-5z,13E-dienoic acid) was purchased from Upjohn Diagnostics (Kalamazoo, MI). Blood was collected from normal human volunteers who reported to be free of medication for at least 10 days prior to blood collection. Washed platelets were prepared and suspended in a modified Tyrode's solution, pH 7.4 as described in Navran, S. S., et al., Thromb. […] The platelet count was adjusted to 3×10^8 /ml for aggregation, secretion and biochemical studies.
(§2) Inhibitors were added one minute prior to induction of platelet activation. Secretion of the contests of platelet dense granules was measured by monitoring the release of radioactivity from platelets prelabeled with [^14 C]-serotonin. […] To study the release of AA from platelet phospholipids, washed platelets were incubated with [^3 H]-AA (3.6 mCi/10^9 platelets) for two hours at room temperature prior to the final centrifugation and resuspension of the washing procedure. Released [^3 H]-AA was quantified from supernatants of stimulated platelet samples in a manner identical to the determination of serotonin secretion.

[2] = tested on: human platelets (ADP-induced aggregation); experiment: ADP-induced human platelet aggregation (turbidometric, secondary aggregation); format: cell-based; details: for rank order of potency, aggregation and serotonin secretory responses to ADP and AA: aggregation and serotonin secretion together; for IC50: Homo sapiens, Platelet, inhibitor 1 min before ADP (1-5 uM), secondary aggregation only, mean ± S.E.M., n = 3-9 donors; for fold more potent than clofibric acid as inhibitor of ADP-induced platelet activation: versus clofibric acid 1
Method: as §1, §2

[3] = tested on: human platelets (arachidonic acid-induced serotonin secretion); experiment: Arachidonic acid-induced [14C]-serotonin secretion; format: cell-based; details: for IC50: Homo sapiens, Platelet, inhibitor 1 min before AA (0.2-1 mM), mean ± S.E.M., n = 3-9 donors
Method: as §1, §2

[4] = tested on: human platelets (ADP-induced serotonin secretion); experiment: ADP-induced [14C]-serotonin secretion; format: cell-based; details: Platelet, inhibitor 1 min before ADP (1-5 uM), mean ± S.E.M., n = 3-9 donors
Method: as §1
Inhibitors were added one minute prior to induction of platelet activation. Secretion of the contests of platelet dense granules was measured by monitoring the release of radioactivity from platelets prelabeled with [^14 C]-serotonin. […] Released [^3 H]-AA was quantified from supernatants of stimulated platelet samples in a manner identical to the determination of serotonin secretion.

[5] = tested on: human platelets (AA-induced MDA formation); experiment: AA-induced malondialdehyde (MDA) formation; format: cell-based; details: Platelet, mean+S.E., N=3-5
Method: The antiaggregatory action of the compounds of the present invention was determined using the following procedure: ADP and AA were obtained from Sigma Chemical Co., (St. Louis, MO). [^14 C]-Serotonin (57 mCi/mmol) and [^3 H]-AA (210 Ci/mmol) were supplied by Amersham (Arlington Heights, IL). U46619 (15S-hydroxy-11α,9α-epoxymethano-prosta-5z,13E-dienoic acid) was purchased from Upjohn Diagnostics (Kalamazoo, MI). Blood was collected from normal human volunteers who reported to be free of medication for at least 10 days prior to blood collection. Washed platelets were prepared and suspended in a modified Tyrode's solution, pH 7.4 as described in Navran, S. S., et al., Thromb. Res., 33: 449-510 (1984). […]
Platelet aggregation studies were performed according to the turbidometric method of Born, as described in Nature, 194: 927-929 (1962), in a Payton Model 600 dual channel aggregometer interfaced to an Apple microcomputer for acquistion, quantitation, presentation, and management of platelet aggregation data, as described in Huzoor-Akbar, et al., 32 Thromb. […] Secretion of the contests of platelet dense granules was measured by monitoring the release of radioactivity from platelets prelabeled with [^14 C]-serotonin. Malondialdehyde formation induced by AA was determined as described in Huzoor-Akar et al., Biochem Pharmacol., 30: 2013-2020 (1981). […]

[6] = tested on: human platelets (thrombin-induced [3H]-AA release); experiment: Thrombin-induced [3H]-arachidonic acid release; format: cell-based; details: for IC50: Homo sapiens, Platelet, inhibitor 1 min before thrombin (0.5 U/ml), terminated at 4 min, 3-5 donors; for inhibition of AA release (in words): thrombin-induced AA release / release from platelet membrane phospholipids
Method: The antiaggregatory action of the compounds of the present invention was determined using the following procedure: ADP and AA were obtained from Sigma Chemical Co., (St. Louis, MO). [^14 C]-Serotonin (57 mCi/mmol) and [^3 H]-AA (210 Ci/mmol) were supplied by Amersham (Arlington Heights, IL). U46619 (15S-hydroxy-11α,9α-epoxymethano-prosta-5z,13E-dienoic acid) was purchased from Upjohn Diagnostics (Kalamazoo, MI). Blood was collected from normal human volunteers who reported to be free of medication for at least 10 days prior to blood collection. Washed platelets were prepared and suspended in a modified Tyrode's solution, pH 7.4 as described in Navran, S. S., et al., Thromb. Res., 33: 449-510 (1984). The platelet count was adjusted to 3×10^8 /ml for aggregation, secretion and biochemical studies.
Platelet aggregation studies were performed according to the turbidometric method of Born, as described in Nature, 194: 927-929 (1962), in a Payton Model 600 dual channel aggregometer interfaced to an Apple microcomputer for acquistion, quantitation, presentation, and management of platelet aggregation data, as described in Huzoor-Akbar, et al., 32 Thromb. Res., 335-341 (1983). Inhibitors were added one minute prior to induction of platelet activation. Secretion of the contests of platelet dense granules was measured by monitoring the release of radioactivity from platelets prelabeled with [^14 C]-serotonin. Malondialdehyde formation induced by AA was determined as described in Huzoor-Akar et al., Biochem Pharmacol., 30: 2013-2020 (1981). To study the release of AA from platelet phospholipids, washed platelets were incubated with [^3 H]-AA (3.6 mCi/10^9 platelets) for two hours at room temperature prior to the final centrifugation and resuspension of the washing procedure. Released [^3 H]-AA was quantified from supernatants of stimulated platelet samples in a manner identical to the determination of serotonin secretion.
The reactions were terminated at 4 minutes and [^3 H]-AA was sampled from platelet supernatants and analyzed as described herein. Data are averages ± S.E.M. from 3-5 donors.

[7] = tested on: human platelets (U46619, thromboxane A2 agonist-induced aggregation); experiment: U46619-induced human platelet aggregation (turbidometric, + ASA); format: cell-based; details: for IC50: Homo sapiens, Platelet, inhibitor 1 min before U46619 (0.3 uM), aspirin 1 mM added, mean ± S.E.M., n = 3-9 donors
Method: as §1, §2

[8] = tested on: human platelets (U46619-induced serotonin secretion); experiment: U46619-induced [14C]-serotonin secretion (+ ASA); format: cell-based; details: for IC50: Homo sapiens, Platelet, inhibitor 1 min before U46619 (0.3 uM), aspirin 1 mM added, mean ± S.E.M., n = 3-9 donors; for fold more potent than clofibric acid as inhibitor of U46619-evoked serotonin secretion: versus clofibric acid 1
Method: as §1, §2

[9] = tested on: human platelets (collagen-induced serotonin secretion); details: Witiak et al., J. Med Chem. 25: 90 (1982); cited from earlier work
[10] = tested on: human platelets (collagen-induced aggregation); details: literature; cited from earlier work
[11] = tested on: hyper-aggregatory responses to inducers of the prostaglandin-dependent pathway; details: hyperlipidemic patients; Vargaftig et al. (1981); cited from earlier work

| SMILES | inhibition of AA-induced aggregation (in words) [1] | rank order of inhibitory potency, AA-induced aggregation [1] | IC50 [1] | fold more potent inhibitor of AA-induced aggregation [1] | antiaggregatory potency relative to clofibric acid (in words) [1] | inhibition of (secondary wave of) ADP-induced aggregation (in words) [2] | rank order of potency, aggregation and serotonin secretory responses to ADP and AA [2] | IC50 [2] | fold more potent than clofibric acid as inhibitor of ADP-induced platelet activation [2] | rank order of inhibitory potency, AA-induced serotonin secretion [3] | IC50 [3] | IC50 [4] | rank order of inhibitory potency, thrombin-induced AA release [6] | IC50 [6] | inhibition of AA release (in words) [6] | inhibition of U46619-induced aggregation/responses (in words) [7] | IC50 [7] | rank order of inhibitory potency against U46619-induced serotonin secretion [8] | IC50 [8] | fold more potent than clofibric acid as inhibitor of U46619-evoked serotonin secretion [8] | other results |
| --- | --- | --- | --- | --- | --- | --- | --- | --- | --- | --- | --- | --- | --- | --- | --- | --- | --- | --- | --- | --- | --- |
| O=C(O)C1Cc2cc(Cl)ccc2O1 (stereo not drawn) [compound X, 5-chloro-2,3-dihydrobenzofuran-2-carboxylic acid] | concentration-dependent inhibition | IX>X>1 | 851 ± 85 µM | approximately 4 fold | more potent antiaggregatory agents than clofibric acid | concentration-dependent inhibition | benzopyranone analogue>2,3-dihydrobenzofuran analog>clofibric acid | 533 ± 71 µM | about 2 fold | IX>X>1 | 1010 ± 142 µM | 419 ± 90 µM | IX>>X=1; also recorded: IX>1=X | 3870 µM | blocks the release and subsequent metabolism of AA | antagonizes the proaggregatory actions of the thromboxane A2 agonist U46619; also recorded: concentration-dependent inhibitors of U46619-induced aggregation | 1480 ± 277 µM | dihydrobenzofuran>benzopyranone>clofibric acid | 1440 ± 239 µM | about 2 fold | IC50 [5]: 908 ± 137 µM |
| O=C1OC(c2ccc(Cl)cc2)C(O)=C1O (stereo not drawn) [compound 2, 2-hydroxytetronic acid aci-reductone] | – | – | – | – | – | – | – | – | – | – | – | – | – | – | – | – | – | – | – | – | inhibition of collagen-induced secretion of [14C]-serotonin (in words) [9]: in a concentration-dependent manner at equivalent doses; inhibition of collagen-induced human platelet aggregation/activation (in words) [10]: inhibit collagen-inducedhuman platelet aggregation |
| CCOC(=O)C(C)(C)Oc1ccc(Cl)cc1 [clofibrate] | – | – | – | – | – | – | – | – | – | – | – | – | – | – | – | – | – | – | – | – | effect of therapy on hyper-aggregatory responses (in words) [11]: reverses the hyper-aggregatory responses to inducers of the prostaglandin-dependent pathway |
| O=c1oc2ccc(Cl)cc2c(O)c1O [compound IX, 6-chloro-3,4-dihydroxy-2H-1-benzopyran-2-one] | potent inhibitor of thrombin-induced AA release and ADP- or AA-induced aggregation; also recorded: concentration-dependent inhibition | IX>X>1 | 739 ± 86 µM | approximately 4 fold | more potent antiaggregatory agents than clofibric acid | potent inhibitor of thrombin-induced AA release and ADP- or AA-induced aggregation; also recorded: concentration-dependent inhibition | benzopyranone analogue>2,3-dihydrobenzofuran analog>clofibric acid | 363 ± 159 µM | about 2 fold | IX>X>1 | 814 ± 90 µM | 466 ± 90 µM | IX>>X=1; also recorded: IX>1=X | 432 µM | blocks AA release from platelet membrane phospholipids; also recorded: potent inhibitor of thrombin-induced AA release | inhibits U46619-induced responses in human platelets; also recorded: concentration-dependent inhibitors of U46619-induced aggregation | 1500 ± 160 µM | dihydrobenzofuran>benzopyranone>clofibric acid | 2380 ± 394 µM | about 2 fold | inhibition of AA metabolism (in words) ([1]; inferred from AA-mediated versus U46619 responses): acts as an inhibitor of AA metabolism |

— patent US4845121A, “Aci-reductone compounds belonging to the 6,7-disubstituted-3,4-dihydro benzopyan-2H-one class having antiaggregatory properties” (The Ohio State University Research Foundation, priority 1986, dated 1989)
